Results on 19 molecules are retold here after PMC6155308 (Molecules : A Journal of Synthetic Chemistry and Natural …, 2017).

As usually defined, the Ki is the equilibrium dissociation constant of an inhibitor or competing ligand from its target.

The target in the assay is T1, BpsCAβ (β-carbonic anhydrase) (Burkholderia pseudomallei, UniProt Q63Y17).
T1 construct: gene BPSL0372
T1 sequence (Q63Y17 1-256 limits assumed): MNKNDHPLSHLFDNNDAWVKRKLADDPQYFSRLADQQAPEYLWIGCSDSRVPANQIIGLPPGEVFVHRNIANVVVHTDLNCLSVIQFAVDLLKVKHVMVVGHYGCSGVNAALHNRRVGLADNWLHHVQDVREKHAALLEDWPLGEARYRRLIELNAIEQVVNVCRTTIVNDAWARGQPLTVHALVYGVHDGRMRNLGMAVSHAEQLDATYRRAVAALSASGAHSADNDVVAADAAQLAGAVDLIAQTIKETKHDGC
The experiment in a line: biochemical.
Molecule `CCN[C@H]1CN(CCCOC)S(=O)(=O)c2sc(S(N)(=O)=O)cc21` [BRZ, brinzolamide] gave a Ki of 4.27 µM.

The molecule `Cc1ccc(-c2cc(C(F)(F)F)nn2-c2ccc(S(N)(=O)=O)cc2)cc1` [CLX, celecoxib] gave a Ki greater than 50 µM.

`NS(=O)(=O)c1cc(Cl)c(Cl)c(S(N)(=O)=O)c1` [DCP, dichlorophenamide] came in with a Ki of 0.529 µM.

In the case of `NS(=O)(=O)c1ccc(S(=O)(=O)Nc2cccc3c(Cl)c[nH]c23)cc1` [IND, indisulam], the affinity, expressed as Ki, was 4.37 µM.

As to `CC(=O)N=c1sc(S(N)(=O)=O)nn1C` [MZA, methazolamide], the affinity corresponds to a Ki of 0.186 µM.

Molecule `CC1(C)O[C@@H]2[C@@H](CO[C@@]3(COS(N)(=O)=O)OC(C)(C)O[C@@H]23)O1` [TPM, topiramate] displayed a Ki greater than 50 µM.

In the case of `NS(=O)(=O)Cc1noc2ccccc12` [ZNS, zonisamide], the Ki turned out to be 4.06 µM.

Regarding `Nc1cccc(S(N)(=O)=O)c1` [compound 1, metanilamide], the Ki was greater than 50 µM.

With `Nc1ccc(S(N)(=O)=O)cc1` [compound 2, sulfanilamide], the Ki was determined as 3.89 µM.

Take `NS(=O)(=O)c1cccc(S(N)(=O)=O)c1` [compound 3, 3]: the affinity corresponds to a Ki of 3.17 µM.

For `Cc1ccc(S(N)(=O)=O)cc1` [compound 4, 4], the Ki is greater than 50 µM.

Take `NCc1ccc(S(N)(=O)=O)cc1` [compound 5, 5]: affinity was put at a Ki of 3.9 µM. That is a single-digit micromolar value.

Molecule `Nc1ccc(S(N)(=O)=O)cc1F` [compound 7, 7] gave a Ki greater than 50 µM.

`Nc1ccc(S(N)(=O)=O)cc1Cl` [compound 8, 8] yielded a Ki greater than 50 µM.

On to `Nc1ccc(S(N)(=O)=O)cc1Br` [compound 9, 9], for which the Ki is greater than 50 µM.

For the molecule `NS(=O)(=O)c1cc(Cl)cc(Cl)c1O` [compound 10, 10], the affinity corresponds to a Ki of 4.1 µM.

In turn, `Nc1nnc(S(N)(=O)=O)s1` [compound 13, deacetylated derivative of AAZ] came in with a Ki of 3.06 µM. The Ki values of the last two molecules are within 1.5-fold of each other.

In the case of `Cn1nc(S(N)(=O)=O)sc1=N` [compound 14, deacetylated derivative of MZA], the Ki is 2.5 µM.

For the molecule `Nc1ccc(S(=O)(=O)Nc2nnc(S(N)(=O)=O)s2)cc1` [compound 20, aminobenzolamide], the Ki turned out to be 0.266 µM.
